Data reported in paper PMC6337485, “Olive Biophenols Reduces Alzheimer’s Pathology in SH-SY5Y Cells and APPswe Mice” (International Journal of Molecular Sciences, 2018).
Where two headings read alike, the source gives them in different places.

Legend:
[1] = molecular target: T1, Aβ42 fibrils (Homo sapiens, UniProt P05067); assay: Thioflavin-T (ThT) fluorometric assay, Aβ42 fibril inhibition; format: biochemical; settings: for Thioflavin-T Assay % Inhibition: highest concentration, 1000 µM standard
[2] = molecular target: T1, Aβ42 fibrils; assay: Congo red binding assay, Aβ42 fibril inhibition; format: biochemical; settings: for Congo-Red Assay % Inhibition: highest concentration, 1000 µM standard
[3] = test system: SH-SY5Y cells
[4] = test system: SH-SY5Y cells; assay: Aβ42 induced SH-SY5Y cells toxicity and olive biophenols treatment (MTT viability); settings: 1000 µM standard, 24 h pre-incubation, then 25 µM Aβ42 for 24 h
[5] = test system: SH-SY5Y cells; remark: listed apart in the source
[6] = molecular target: T1, Aβ42 fibrils; assay: Transmission electron microscope (TEM) imaging of Aβ42 fibrils with olive biophenols; format: biochemical; settings: biophenol ≥200 µM, 20 µM Aβ42 fibrils, 24 h, 37 °C
Protocol: Ten µL aliquot of each sample was spotted onto a glow-discharged, carbon-coated formvar grid and incubated for 30 min. The droplet then was displaced with an equal volume of 2.5% glutaraldehyde (v/v) and incubated for an additional 5 min. Finally, the grid was stained with 10 μL of 3% 0.22 µm filtered uranyl acetate (v/v) twice, and the solution was gently wicked off using Whatman’s grade-1 qualitative filter paper and the grid was then air-dried. Samples were examined by using a Hitachi H7100FA TEM (Hitachi, Japan) at the Centre for Advanced Microscopy, Australian National University, Canberra. All the images were captured at a voltage of 125 kV and an instrumental magnification of 2000×.

[7] = test system: BACE-1 enzyme; set-up: method as in PMID 29772299; settings: among olive biophenols; cited from earlier work
[8] = test system: SH-SY5Y cells; set-up: method as in PMID 29109370; settings: cited from earlier work
[9] = test system: SH-SY5Y cells; settings: human, 1000 µM
[10] = test system: SH-SY5Y cells; settings: human, 1000 µM; remark: listed apart in the source
[11] = standard biophenols 10–1000 µM, pre-formed Aβ42 fibril, 2 h, room temperature
[12] = 1000 µM standard, 24 h pre-incubation, then 25 µM Aβ42 and 200 µM L-DOPA for 24 h
[13] = 1000 µM standard, 24 h pre-incubation, then 25 µM Aβ42 and 200 µM copper for 24 h

T1 sequence (P05067 672-713 limits assumed): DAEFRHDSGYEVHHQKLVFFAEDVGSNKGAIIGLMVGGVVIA

Row | Compound | Thioflavin-T Assay IC50 [1, 11] | Congo-Red Assay IC50 [2, 11] | Aβ-L-DOPA-SH-SY5Y Toxicity % Viability [3, 12] [%] | Aβ-SH-SY5Y Toxicity % Viability [4] [%] | Aβ-Cu-SH-SY5Y Toxicity % Viability [5, 13] [%] | Thioflavin-T Assay % Inhibition [1] [%] | Congo-Red Assay % Inhibition [2] [%] | IC50 ([2]; read-out: Congo-Red Assay IC50) [µM] | IC50 [1] [µM] | IC50 [1, 11] [µM] | IC50 ([2]; standard biophenols 10–1000 µM, pre-formed Aβ42 fibril, 2 h, room temperature, read-out: Congo-Red Assay IC50) [µM] | Effect on formed Aβ42 fibrils (TEM) [6] | BACE-1 enzyme inhibition [7] | IC50 [2] [µM] | Protection of SH-SY5Y cells against Cu-induced toxicity [8] | Aβ-Cu-SH-SY5Y Toxicity % Viability ([5]; human, SH-SY5Y neuroblastoma cells, 1000 µM) [%] | Aβ-SH-SY5Y Toxicity % Viability [9] [%] | Aβ-Cu-SH-SY5Y Toxicity % Viability [10] [%] | Aβ-L-DOPA-SH-SY5Y Toxicity % Viability ([3]; human, 1000 µM) [%]
1 | O=C(O)/C=C/c1ccc(O)c(O)c1 [Caffeic acid (CA), Caffeic acid] | unable to achieve IC50 value | unable to achieve IC50 value | 67 ± 0.43 | 62 ± 0.53 | 62 ± 0.93 | – | – | – | – | – | – | – | – | – | – | – | – | – | –
2 | OCCc1ccc(O)c(O)c1 [Hydroxytyrosol (HT), Hydroxytyrosol] | unable to achieve IC50 value | – | 64 ± 1.02 | 60 ± 1.00 | 60 ± 0.84 | 45 ± 0.47 | 50 ± 0.4 | 97.8 | – | – | – | – | – | – | – | – | – | – | –
3 | O=c1cc(-c2ccc(O)c(O)c2)oc2cc(O)cc(O)c12 [Luteolin (LU), Luteolin] | – | – | 69 ± 0.87 | 65 ± 0.39 | 67 ± 0.52 | 64 ± 0.4 | 61 ± 0.33 | 46.3 | 36.9 | – | – | – | – | – | – | – | – | – | –
4 | CC(Cc1ccc(O)c(O)c1)C(C)Cc1ccc(O)c(O)c1 (stereo not shown) [Nordihroguaretic acid (NDGA), Nordihydroguaiaretic acid, reference compound] | – | – | – | – | – | 70 ± 0.5 | 69 ± 0.4 | – | – | 15.4 | 14.4 | – | – | – | – | – | – | – | –
5 | C/C=C1/[C@H](O[C@@H]2O[C@H](CO)[C@@H](O)[C@H](O)[C@H]2O)OC=C(C(=O)OC)[C@H]1CC(=O)OCCc1ccc(O)c(O)c1 [Oleuropein (OL), Oleuropein] | – | – | 74 ± 0.23 | 68 ± 0.69 | 76 ± 1.61 | 61 ± 0.33 | 65 ± 0.3 | 36.5 | 22.9 | – | – | significant reduction in both the size and number of fibrils | strongest inhibitor | – | – | – | – | – | –
6 | O=c1c(O)c(-c2ccc(O)c(O)c2)oc2cc(O)cc(O)c12 [Quercetin (QU), Quercetin] | – | – | – | – | – | 57 ± 0.34 | 55 ± 0.71 | – | 45.9 | – | – | moderate reduction in fibril formation | – | 73.8 | rescue SH-SY5Y cells | 60 ± 0.52 | – | – | –
7 | C[C@@H]1O[C@@H](OC[C@H]2O[C@@H](Oc3c(-c4ccc(O)c(O)c4)oc4cc(O)cc(O)c4c3=O)[C@H](O)[C@@H](O)[C@@H]2O)[C@H](O)[C@H](O)[C@H]1O [Rutin (RU), Rutin] | unable to reach the IC50 concentration | unable to achieve IC50 value | 57 ± 0.85 | 59 ± 0.59 | 54 ± 0.71 | 49 ± 0.25 | 48 ± 0.33 | – | – | – | – | – | – | – | – | – | – | – | –
8 | C[C@@H]1O[C@@H](O[C@@H]2[C@@H](O)[C@H](OCCc3ccc(O)c(O)c3)O[C@H](CO)[C@H]2OC(=O)/C=C/c2ccc(O)c(O)c2)[C@H](O)[C@H](O)[C@H]1O [Verbascoside (VB), Verbascoside] | – | – | – | – | – | 61 ± 0.35 | 57 ± 0.51 | 59.6 | 22.6 | – | – | – | strongest inhibitor | – | rescue SH-SY5Y cells | – | 66 ± 1.11 | 70 ± 0.48 | 69 ± 0.66
